We go through 73 compounds from ChEMBL document CHEMBL4680160, “A perspective review on fatty acid amide hydrolase (FAAH) inhibitors as potential therapeutic agents” (Eur J Med Chem, 2020).

What is called pIC50 is −log10 of the IC50, conventionally taken in molar units.

Molecules are shown by their SMILES. pIC50: −log10 of the molar value.

System in one test: not listed separately
The test is described as follows: In vivo inhibition of FAAH in NMRI mouse assessed as remaining enzymatic activity in liver at 30 mg/kg, po measured after 1 hr by AEA-substrate based scintillation counting method relative to control. It is filed as functional.
On to `Cl.O=c1oc(Oc2ccc(F)cc2F)nn1-c1ccc(OCCN2CCCCC2)cc1`, for which the Activity was 10%.
Still for that read-out and setting: next, `Cl.Cl.O=c1oc(Oc2ccc(F)cc2F)nn1-c1ccc(OCCCN2CCNCC2)cc1`: 8%; `Cl.Cl.O=c1oc(Oc2ccc(F)cc2F)nn1-c1ccc(OCCN2CCNCC2)cc1`: 5%; `O=c1oc(Oc2ccc(F)cc2F)nn1-c1ccc(O)cc1`: 12%.
On the same count and under the same terms, next, `Cl.O=c1oc(Oc2ccc(F)cc2F)nn1-c1ccc(OCCN2CCCC2)cc1`: 9%; `O=c1oc(Oc2ccc(F)cc2F)nn1-c1cccc(O)c1`: 12%.

For the next test, the target named is T1, Fatty-acid amide hydrolase 1 (Rattus norvegicus, UniProt P97612).
T1 sequence (P97612 whole entry): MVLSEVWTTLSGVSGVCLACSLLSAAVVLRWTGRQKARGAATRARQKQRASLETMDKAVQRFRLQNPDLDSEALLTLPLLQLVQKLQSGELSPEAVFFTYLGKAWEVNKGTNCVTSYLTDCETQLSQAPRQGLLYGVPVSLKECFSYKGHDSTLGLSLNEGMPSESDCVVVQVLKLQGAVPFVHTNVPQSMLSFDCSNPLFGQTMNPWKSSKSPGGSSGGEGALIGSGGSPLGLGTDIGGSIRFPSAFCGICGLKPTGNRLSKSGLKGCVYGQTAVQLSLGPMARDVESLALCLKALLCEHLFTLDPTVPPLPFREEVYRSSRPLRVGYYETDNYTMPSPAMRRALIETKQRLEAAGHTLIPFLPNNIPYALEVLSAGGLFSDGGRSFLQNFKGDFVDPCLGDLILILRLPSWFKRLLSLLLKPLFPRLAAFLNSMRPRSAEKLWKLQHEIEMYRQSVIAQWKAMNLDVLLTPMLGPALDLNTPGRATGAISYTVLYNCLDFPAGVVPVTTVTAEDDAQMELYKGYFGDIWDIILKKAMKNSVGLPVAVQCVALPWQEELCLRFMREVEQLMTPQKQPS
The test is described as follows: Inhibition of FAAH in rat brain microsomes using N-(2-hydroxyethyl)-4-pyren-1-ylbutanamide as substrate incubated for 45 mins by reverse-phase HPLC-based fluorescence assay.
Compound `O=C(COc1ccc(Oc2ccccc2)cc1)Cn1ncc2cc(NC(=O)NC3CCCCC3)ccc21` showed a pIC50 of 6.08.
As to `O=C(Cn1nnc2ccccc21)c1nc2cc(Oc3ccccc3)ccc2o1`, the pIC50 is 5.00.
Regarding `O=C(COc1ccc(Oc2ccccc2)cc1)Cn1ncc2ccccc21`, the pIC50 is 5.59.
Still for that read-out and setting: for `O=C(COc1ccc(Oc2ccccc2)cc1)Cn1ncc2cc(NC(=O)CO)ccc21` the value was 5.27; for `COCC(=O)Nc1ccc2c(cnn2CC(=O)COc2ccc(Oc3ccccc3)cc2)c1`, 5.20; for `CC(=O)Nc1ccc2c(cnn2CC(=O)COc2ccc(Oc3ccccc3)cc2)c1`, 5.41.
For the compound `O=C(COc1ccc(Oc2ccccc2)cc1)Cn1ncnn1`, the pIC50 is 8.10.
`O=C(COc1ccc(Oc2ccccc2)cc1)Cn1ncc2cc(C(=O)NS(=O)(=O)C(F)(F)F)ccc21` gave a pIC50 of 6.29.
`O=C(COc1ccc(Oc2ccccc2)cc1)Cn1ncc2cc([N+](=O)[O-])ccc21`: the pIC50 is 6.26.
On the same count and under the same terms, next, `O=C(COc1ccc(Oc2ccccc2)cc1)Cn1ncc2cc(NC(=O)Nc3ccccc3)ccc21`: 5.22.
On the same count and under the same terms, next, `COC(=O)Nc1ccc2c(cnn2CC(=O)COc2ccc(Oc3ccccc3)cc2)c1`: 5.40.
Same read-out and setting: for `CS(=O)(=O)NC(=O)c1ccc2c(cnn2CC(=O)COc2ccc(Oc3ccccc3)cc2)c1` the value was 6.11.
`N#CNC(COc1ccc(Oc2ccccc2)cc1)Cn1ncnn1` (stereo not drawn): the pIC50 is 5.28.
Still for that read-out and setting: for `O=C(COc1ccc(Oc2ccccc2)cc1)Cn1ncc2cc(C(=O)O)ccc21` the value was 7.26; for `CCNC(=O)Nc1ccc2c(cnn2CC(=O)COc2ccc(Oc3ccccc3)cc2)c1`, 5.80.
The same measure, in the same setting: for `O=C(COc1ccc(Oc2ccccc2)cc1)Cn1ncc2cc(NC(=O)Oc3ccccc3)ccc21` the value was 5.68; for `O=C(COc1ccc(Oc2ccccc2)cc1)Cn1ncc2cc(C(=O)NS(=O)(=O)c3ccccc3)ccc21`, 5.33.

For another test, the species on record is Rattus norvegicus. The test can be described thus: Selectivity ratio of IC50 for rat NAAA using d4-PEA as substrate to IC50 for rat FAAH using [3H]-AEA as substrate.
For the compound `CC(=O)Oc1cn(C(=O)NCCCCCCCc2ccccc2)c(=O)[nH]c1=O`, the Ratio IC50 worked out at 3130.
The same measure, in the same setting: next, `CC(=O)Oc1cn(C(=O)NCCCCc2ccc(-c3ccccc3)cc2)c(=O)[nH]c1=O`: more than 10000; `CC(=O)Oc1cn(C(=O)NCCCc2ccc(-c3ccccc3)cc2)c(=O)[nH]c1=O`: more than 10000; `CCCCCCNC(=O)n1ccc(=O)[nH]c1=O`: 2.

For the next test, the target named is T1, Fatty-acid amide hydrolase 1. The test is described as follows: Inhibition of rat FAAH using [3H]-AEA as substrate by liquid chromatography-mass spectrometry.
In turn, `CCCCCCNC(=O)n1cc(OC(C)=O)c(=O)[nH]c1=O` showed a pIC50 of 7.60.
Still for that read-out and setting: for `CC(=O)Oc1cn(C(=O)NCCCCCCCc2ccccc2)c(=O)[nH]c1=O` the value was 8.52; for `CC(=O)Oc1cn(C(=O)NCCCCc2ccc(-c3ccccc3)cc2)c(=O)[nH]c1=O`, 9.10.
The same measure, in the same setting: next, `CC(=O)Oc1cn(C(=O)NCCCc2ccc(-c3ccccc3)cc2)c(=O)[nH]c1=O`: 9.52.
As for `CCCCCCNC(=O)n1ccc(=O)[nH]c1=O`, the pIC50 was 6.31.
Take `CCCCCCNC(=O)n1cc(C#N)c(=O)[nH]c1=O`: the pIC50 is 7.60.
On the same count and under the same terms, for `CCCCCCNC(=O)n1cc(F)c(=O)[nH]c1=O` [CARMOFUR] the value was 7.60.

System in a further test: not listed separately
The test can be described thus: In vivo inhibition of FAAH in NMRI mouse assessed as remaining enzymatic activity in brain at 30 mg/kg, po measured after 1 hr by AEA-substrate based scintillation counting method relative to control. It is filed as functional.
As to `Cl.O=c1oc(Oc2ccc(F)cc2F)nn1-c1ccc(OCCN2CCCCC2)cc1`, the Activity is 20%.
The same measure, in the same setting: next, `Cl.Cl.O=c1oc(Oc2ccc(F)cc2F)nn1-c1ccc(OCCCN2CCNCC2)cc1`: 85%; `Cl.Cl.O=c1oc(Oc2ccc(F)cc2F)nn1-c1ccc(OCCN2CCNCC2)cc1`: 74%.
Regarding `O=c1oc(Oc2ccc(F)cc2F)nn1-c1ccc(O)cc1`, the Activity was 86%.
Still for that read-out and setting: for `Cl.O=c1oc(Oc2ccc(F)cc2F)nn1-c1ccc(OCCN2CCCC2)cc1` the value was 10%; for `O=c1oc(Oc2ccc(F)cc2F)nn1-c1cccc(O)c1`, 94%.

The target in another test is T1, Fatty-acid amide hydrolase 1. The test can be described thus: Inhibition of FAAH in rat brain homogenate using 2-arachidonoyl-[3H]-glycerol as substrate by scintillation counting method. It is filed as tissue-based.
`O=C(N1CCN(Cc2nc3cc(F)ccc3n3cccc23)CC1)n1nnc2ccccc21` had a pIC50 of 7.63.
The same measure, in the same setting: for `O=C(N1CCN(Cc2nc3ccccc3n3cccc23)CC1)n1cncn1` the value was 7.43.
Same read-out and setting: next, `O=C(N1CCC(NCc2nc3cc(F)ccc3n3cccc23)CC1)n1nnc2ccccc21`: 8.02.
The same measure, in the same setting: next, `Cc1ccc2c(nc(CN3CCN(C(=O)n4cncn4)CC3)c3cccn32)c1C`: 7.49.
With `O=C(N1CCN(Cc2nc3cc(Cl)ccc3n3cccc23)CC1)n1nnc2ccccc21`, the pIC50 was 7.45.
Still for that read-out and setting: for `O=C(N1CCN(Cc2nc3cc(F)ccc3n3cccc23)CC1)n1cncn1` the value was 7.68.
The same measure, in the same setting: next, `Cc1ccc2c(nc(CNC3CCN(C(=O)n4nnc5ccccc54)CC3)c3cccn32)c1C`: 7.60; `O=C(N1CCN(Cc2nc3ccccc3n3cccc23)CC1)n1nnc2ccccc21`: 7.63; `O=C(N1CCN(Cc2nc3cc(Cl)ccc3n3cccc23)CC1)n1cncn1`: 7.60.
Still for that read-out and setting: for `Cc1ccc2c(nc(CN3CCN(C(=O)n4nnc5ccccc54)CC3)c3cccn32)c1C` the value was 7.56.

For a further test the target is unchanged. The test can be described thus: Inhibition of FAAH in rat brain homogenate using [3H]AEA as substrate incubated for 10 mins by liquid scintillation spectroscopy. It is filed as tissue-based.
Consider `CC(C)Cc1ccc(C(C)C(=O)N2CCN(c3cccc(Cl)c3)CC2)cc1` (stereo not drawn), for which the pIC50 is 5.77.
Same read-out and setting: for `COc1ccc(CNC(=O)C(C)c2ccc(CC(C)C)cc2)cc1` (stereo not drawn) the value was 4.37; for `COc1ccccc1CNC(=O)C(C)c1ccc(CC(C)C)cc1` (stereo not drawn), 4.74.
`CC(C)Cc1ccc(C(C)C(=O)NCc2ccc(C(C)(C)C)cc2)cc1` (stereo not drawn): the pIC50 was 4.60.
The compound `CC(C)Cc1ccc(C(C)C(=O)NCc2cccc(C(F)(F)F)c2)cc1` (stereo not drawn) showed a negative logarithm of the IC50 (pIC50) of 4.55.
Same read-out and setting: for `Cc1cccc(N2CCN(C(=O)C(C)c3ccc(CC(C)C)cc3)CC2)c1` (stereo not drawn) the value was 4.80.
`COc1ccc(CNC(=O)C(C)c2ccc(CC(C)C)cc2)cc1O` (stereo not drawn) gave a pIC50 of 4.74.
The same measure, in the same setting: for `CC(C)Cc1ccc(C(C)C(=O)N2CCN(c3ccccc3)CC2)cc1` (stereo not drawn) the value was 5.33; for `CC(C)Cc1ccc(C(C)C(=O)N2CCN(c3ccc(Cl)c(Cl)c3)CC2)cc1` (stereo not drawn), 4.80.
The same measure, in the same setting: for `COc1ccc(N2CCN(C(=O)C(C)c3ccc(CC(C)C)cc3)CC2)cc1` (stereo not drawn) the value was 5.35; for `CC(C)Cc1ccc(C(C)C(=O)NCc2ccc(Cl)c(Cl)c2)cc1` (stereo not drawn), 4.44; for `Cc1cccc(N2CCN(C(=O)C(C)c3ccc(CC(C)C)cc3)CC2)c1C` (stereo not drawn), 5.77.
Same read-out and setting: for `CC(C)Cc1ccc(C(C)C(=O)N2CCN(c3ccc(Cl)cc3)CC2)cc1` (stereo not drawn) the value was 5.77.
`CC(C)Cc1ccc(C(C)C(=O)NCc2ccc(Cl)cc2)cc1` (stereo not drawn) had a pIC50 of 4.57.
Still for that read-out and setting: next, `CC(C)Cc1ccc(C(C)C(=O)NCc2ccc(C(F)(F)F)cc2)cc1` (stereo not drawn): 4.29; `CC(C)Cc1ccc(C(C)C(=O)NCc2ccc(F)cc2)cc1` (stereo not drawn): 4.57; `CC(C)Cc1ccc(C(C)C(=O)NCc2ccccc2)cc1` (stereo not drawn): 4.68.

The target is the same in another test. The test is described as follows: Inhibition of FAAH in rat brain homogenate using [3H]AEA as substrate. It is filed as tissue-based.
In the case of `CCC/C=C/COCC(=O)Nc1cccc(-c2nc3ncccc3o2)c1`, the pIC50 was 4.77.
On the same count and under the same terms, next, `O=C(COc1ccc(-c2ccccc2)cc1)Nc1cccc(-c2nc3ncccc3o2)c1`: 6.20.
In the case of `O=C(COc1ccccc1)Nc1cccc(-c2nc3ncccc3o2)c1`, the pIC50 was 4.74.
Same read-out and setting: for `CC(C)c1ccc(OCC(=O)Nc2cccc(-c3nc4ncccc4o3)c2)cc1` the value was 5.68; for `O=C(COc1ccc(C2CCCCC2)cc1)Nc1ccc(-c2nc3ncccc3[nH]2)cc1`, 5.82; for `O=C(COc1ccc(-c2ccccc2)cc1)Nc1ccc(-c2nc3ncccc3[nH]2)cc1`, 6.21.
On the same count and under the same terms, for `O=C(COc1ccc(C2CCCCC2)cc1)Nc1cccc(-c2nc3ncccc3o2)c1` the value was 5.59; for `CCC/C=C/COCC(=O)Nc1ccccc1-c1nc2ncccc2[nH]1`, 5.26.
Same read-out and setting: next, `CCC/C=C/COCC(=O)Nc1cccc(-c2nc3cccnc3[nH]2)c1`: 4.14; `O=C(COc1ccc(-c2ccccc2)cc1)Nc1cccc(-c2nc3cccnc3[nH]2)c1`: 4.89; `O=C(COc1ccc(C2CCCCC2)cc1)Nc1cccc(-c2nc3ncccc3[nH]2)c1`: 4.33.
`O=C(COc1ccc(-c2ccccc2)cc1)Nc1ccc(-c2nc3ncccc3o2)cc1` gave a pIC50 of 6.46.
Same read-out and setting: next, `O=C(COc1ccc(-c2ccccc2)cc1)Nc1ccccc1-c1nc2ncccc2[nH]1`: 5.96.
With `O=C(COc1ccc(C2CCCCC2)cc1)Nc1ccccc1-c1nc2ncccc2[nH]1`, the pIC50 is 6.19.
`CCCC/C=C/COCC(=O)Nc1ccc(-c2nc3ncccc3[nH]2)cc1`: the pIC50 is 4.19.

A further test has the same target. The test is described as follows: Inhibition of FAAH in Sprague-Dawley rat brain homogenate using arachidonoyl-ethanolamide and anandamide [ethanolamine-1-3H] as substrate pre-incubated for 10 mins followed by substrate addition and measured after 30 mins by liquid scintillation counting method. It is filed as tissue-based.
As for `NC(=O)c1cccc(-c2cccc(OC(=O)NCCCN3CCN(c4cccc(Cl)c4Cl)CC3)c2)c1`, the pIC50 is 10.00.
